Source: patent publication US10144715B2, “Piperazine derivatives as liver X receptor modulators” (priority 2014, dated 2018)
Like-named read-outs stand apart in the source and are kept apart here.

Experiments:
LXR α LBD protein = LXR α LBD protein (Homo sapiens (Human), UniProt Q13133); assay: LXR α radioligand binding assay (SPA, competition with [3H]TO901317); conditions: read-out: LXRα Binding Ki
LXR β LBD protein = LXR β LBD protein (Homo sapiens (Human), UniProt P55055); assay: biochemical; type: binding
Chain of LXR β LBD protein (P55055 222-460 limits assumed): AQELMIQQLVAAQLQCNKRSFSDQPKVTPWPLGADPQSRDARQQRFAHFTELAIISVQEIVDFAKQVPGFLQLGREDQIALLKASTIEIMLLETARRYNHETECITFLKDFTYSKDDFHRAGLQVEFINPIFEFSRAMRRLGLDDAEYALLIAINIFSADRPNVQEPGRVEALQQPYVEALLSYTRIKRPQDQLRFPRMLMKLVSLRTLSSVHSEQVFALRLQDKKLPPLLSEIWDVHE

[1] = target: Gal4 DNA binding domain fused to the LBD of LXRα in HEK293 cells (Homo sapiens (Human), UniProt Q13133); assay: LXR luciferase transcriptional reporter gene assay, agonist mode, LXRα; type: cell-based; conditions: for EC50: read-out: Cell LXRα EC50
Chain of Gal4 DNA binding domain fused to the LBD of LXRα in HEK293 cells (Q13133 209-447): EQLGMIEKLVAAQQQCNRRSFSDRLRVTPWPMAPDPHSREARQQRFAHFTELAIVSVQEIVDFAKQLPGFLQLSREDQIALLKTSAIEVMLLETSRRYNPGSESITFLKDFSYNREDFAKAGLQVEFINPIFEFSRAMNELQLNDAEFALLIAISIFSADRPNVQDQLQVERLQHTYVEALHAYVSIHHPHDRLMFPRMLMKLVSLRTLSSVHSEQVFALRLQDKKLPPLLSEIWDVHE

[2] = target: Gal4 DNA binding domain fused to the LBD of LXRβ in HEK293 cells (Homo sapiens (Human), UniProt P55055); assay: cell-based
Chain of Gal4 DNA binding domain fused to the LBD of LXRβ in HEK293 cells (P55055 222-460 limits assumed): as the sequence (P55055 222-460 limits assumed) above

[3] = Biological Test Example 2, agonist mode

Chain of LXR α LBD protein (Q13133 209-447): as the sequence (Q13133 209-447) above

## CO[C@]1(C(F)(F)F)CC[C@H](CN2CCN(c3ccc(CO)c(S(C)(=O)=O)c3)C[C@@H]2C(C)C)CC1 (single isomer, unassigned) [Cpd No 48-80]
LXR α LBD protein
  Ki: 0.03 µM
LXR β LBD protein; Biological Test Example 1, read-out: LXRβ Binding Ki
  Ki: 0.003 µM
[1]
  Cell LXRα efficacy: 27 (73) %
[1]; [3]
  EC50: 0.027 µM
[2]
  EC50: 0.018 µM
[2]; [3]
  Cell LXRβ efficacy: 18 (99) %

## CC(C)[C@H]1CN(c2ccc(CO)c(S(C)(=O)=O)c2)CCN1C[C@H]1CC[C@H](C(F)(F)F)OC1 (single isomer, unassigned) [Cpd No 49-2]
LXR α LBD protein
  Ki: 0.194 µM
LXR β LBD protein; read-out: LXRβ Binding Ki
  Ki: 0.023 µM
[1]
  Cell LXRα efficacy: 122 (63) %
  EC50: 0.122 µM
[2]
  Cell LXRβ efficacy: 78 (83) %
  EC50: 0.078 µM

## CC(C)[C@H]1CN(c2cccc(S(C)(=O)=O)c2)CCN1C[C@H]1CC[C@@H](C(F)(F)F)OC1 (single isomer, unassigned) [Cpd No 49-5]
LXR α LBD protein
  Ki: 0.421 µM
LXR β LBD protein
  Ki: 0.07 µM
[1]
  Cell LXRα efficacy: 578 (64) %
  EC50: 0.578 µM
[2]
  Cell LXRβ efficacy: 266 (77) %
  EC50: 0.266 µM

## CC(C)[C@H]1CN(c2cccc(S(C)(=O)=O)c2)CCN1C[C@H]1CC[C@H](C(F)(F)F)OC1 (single isomer, unassigned) [Cpd No 49-6]
LXR α LBD protein
  Ki: 0.216 µM
LXR β LBD protein; read-out: LXRβ Binding Ki
  Ki: 0.046 µM
[1]
  Cell LXRα efficacy: 442 (56) %
  EC50: 0.442 µM
[2]
  Cell LXRβ efficacy: 114 (67) %
  EC50: 0.114 µM

## CC(C)[C@H]1CN(c2cccc(S(C)(=O)=O)c2)CCN1C[C@@H]1CC[C@@H](C(F)(F)F)OC1 (single isomer, unassigned) [Cpd No 49-7]
LXR α LBD protein
  Ki: 0.333 µM
LXR β LBD protein; read-out: LXRβ Binding Ki
  Ki: 0.045 µM
[1]
  Cell LXRα efficacy: 523 (82) %
  EC50: 0.523 µM
[2]
  Cell LXRβ efficacy: 132 (76) %
  EC50: 0.132 µM

## CC(C)[C@H]1CN(c2cccc(S(C)(=O)=O)c2)CCN1C[C@@H]1CC[C@H](C(F)(F)F)OC1 (single isomer, unassigned) [Cpd No 49-8]
LXR α LBD protein
  Ki: 0.084 µM
LXR β LBD protein; read-out: LXRβ Binding Ki
  Ki: 0.011 µM
[1]
  Cell LXRα efficacy: 103 (79) %
  EC50: 0.103 µM
[2]
  Cell LXRβ efficacy: 36 (93) %
  EC50: 0.036 µM

## CO[C@H]1CC[C@@H](CN2CCN(c3ccc(CO)c(S(C)(=O)=O)c3)C[C@@H]2C(C)C)CC1 (single isomer, unassigned) [Cpd No 51-7]
LXR α LBD protein
  Ki: 0.303 µM
LXR β LBD protein; read-out: LXRβ Binding Ki
  Ki: 0.051 µM
[1]
  Cell LXRα efficacy: 154 (80) %
  EC50: 0.154 µM
[2]
  EC50: 0.042 µM
[2]; [3]
  Cell LXRβ efficacy: 42 (84) %

## CC(C)[C@@H]1CN(c2ccc(C(N)=O)c(S(C)(=O)=O)c2Cl)CCN1c1nccc(C(F)(F)F)n1 [4-3, (R)-3-chloro-4-(3-isopropyl-4-(4-(trifluoromethyl)pyrimidin-2-yl)piperazin-1-yl)-2-(methylsulfonyl)benzamide]
LXR α LBD protein
  Ki: > 3.33 µM
LXR β LBD protein; read-out: LXRβ Binding Ki
  Ki: > 2.5 µM
[1]
  EC50: > 20 µM
[2]
  EC50: 1.68 µM
[2]; agonist mode
  Cell LXRβ efficacy: 1679 (12) %

## CC(C)[C@@H]1CN(c2cc(S(C)(=O)=O)c(C(N)=O)cc2Cl)CCN1c1nccc(C(F)(F)F)n1 [4-4, (R)-5-chloro-4-(3-isopropyl-4-(4-(trifluoromethyl)pyrimidin-2-yl)piperazin-1-yl)-2-(methylsulfonyl)benzamide]
LXR α LBD protein
  Ki: > 3.33 µM
LXR β LBD protein; read-out: LXRβ Binding Ki
  Ki: 1.63 µM
[1]
  Cell LXRα efficacy: 2852 (7) %
[1]; agonist mode
  EC50: 2.85 µM
[2]
  EC50: 1.35 µM

## CC(C)[C@@H]1CN(c2ccc(F)c(S(C)(=O)=O)c2)CCN1c1nccc(C(N)=O)n1 [4-5, (R)-2-(4-(4-fluoro-3-(methylsulfonyl)phenyl)-2-isopropylpiperazin-1-yl)pyrimidine-4-carboxamide]
LXR α LBD protein
  Ki: 3.25 µM
LXR β LBD protein; read-out: LXRβ Binding Ki
  Ki: 0.495 µM
[1]
  Cell LXRα efficacy: 15117 (37) %
  EC50: 15.1 µM
[2]
  Cell LXRβ efficacy: 1723 (24) %
  EC50: 1.72 µM

## CC(C)[C@@H]1CN(c2ccc(F)c(S(C)(=O)=O)c2)CCN1c1ncc(C(F)(F)F)c(C(N)=O)n1 [4-7, (R)-2-(4-(4-fluoro-3-(methylsulfonyl)phenyl)-2-isopropylpiperazin-1-yl)-5-(trifluoromethyl)pyrimidine-4-carboxamide]
LXR α LBD protein
  Ki: 1.68 µM
LXR β LBD protein; read-out: LXRβ Binding Ki
  Ki: 0.173 µM
[1]
  Cell LXRα efficacy: 2952 (73) %
  EC50: 2.95 µM
[2]
  EC50: 0.477 µM
[2]; agonist mode
  Cell LXRβ efficacy: 477 (61) %

## CC(C)[C@@H]1CN(c2ccc(F)c(S(C)(=O)=O)c2)CCN1c1nccc(C#N)n1 [7-7, (R)-2-(4-(4-fluoro-3-(methylsulfonyl)phenyl)-2-isopropylpiperazin-1-yl)pyrimidine-4-carbonitrile]
LXR α LBD protein
  Ki: 0.421 µM
LXR β LBD protein; read-out: LXRβ Binding Ki
  Ki: 0.047 µM
[1]
  Cell LXRα efficacy: 1467 (69) %
[1]; agonist mode
  EC50: 1.47 µM
[2]
  EC50: 0.404 µM
[2]; agonist mode
  Cell LXRβ efficacy: 404 (60) %

## Cc1cc(C#N)nc(N2CCN(c3ccc(F)c(S(C)(=O)=O)c3)C[C@H]2C(C)C)n1 [7-8, (R)-2-(4-(4-fluoro-3-(methylsulfonyl)phenyl)-2-isopropylpiperazin-1-yl)-6-methylpyrimidine-4-carbonitrile]
LXR α LBD protein
  Ki: > 3.33 µM
LXR β LBD protein; read-out: LXRβ Binding Ki
  Ki: 1.01 µM
[1]
  Cell LXRα efficacy: 17317 (26) %
[1]; agonist mode
  EC50: 17.3 µM
[2]
  EC50: 1.52 µM
[2]; agonist mode
  Cell LXRβ efficacy: 1521 (21) %

## CC(C)[C@@H]1CN(c2cccc(S(C)(=O)=O)c2)CCN1c1ncc(OC(F)F)cn1 [7-11, (R)-5-(difluoromethoxy)-2-(2-isopropyl-4-(3-(methylsulfonyl)phenyl)piperazin-1-yl)pyrimidine]
LXR α LBD protein
  Ki: 0.898 µM
LXR β LBD protein; read-out: LXRβ Binding Ki
  Ki: 0.078 µM
[1]
  Cell LXRα efficacy: 3658 (71) %
  EC50: 3.66 µM
[2]
  EC50: 1.2 µM
[2]; agonist mode
  Cell LXRβ efficacy: 1198 (48) %

## COC(=O)c1cnc(N2CCN(c3ccc(F)c(S(C)(=O)=O)c3)C[C@H]2C(C)C)nc1 [7-14, methyl (R)-2-(4-(4-fluoro-3-(methylsulfonyl)phenyl)-2-isopropylpiperazin-1-yl)pyrimidine-5-carboxylate]
LXR α LBD protein
  Ki: 2.87 µM
LXR β LBD protein; read-out: LXRβ Binding Ki
  Ki: 0.285 µM
[1]
  Cell LXRα efficacy: 7124 (30) %
  EC50: 7.12 µM
[2]
  EC50: 0.379 µM
[2]; agonist mode
  Cell LXRβ efficacy: 379 (17) %

## COC(=O)c1ccnc(N2CCN(c3ccc(F)c(S(C)(=O)=O)c3)C[C@H]2C(C)C)n1 [7-15, methyl (R)-2-(4-(4-fluoro-3-(methylsulfonyl)phenyl)-2-isopropylpiperazin-1-yl)pyrimidine-4-carboxylate]
LXR α LBD protein
  Ki: 0.213 µM
LXR β LBD protein; read-out: LXRβ Binding Ki
  Ki: 0.02 µM
[1]
  Cell LXRα efficacy: 1102 (85) %
  EC50: 1.1 µM
[2]
  Cell LXRβ efficacy: 213 (65) %
  EC50: 0.213 µM

## Cc1cc(C(F)(F)F)nc(N2CCN(c3ccc(F)c(S(C)(=O)=O)c3)C[C@H]2C(C)C)n1 [7-18, (R)-2-(4-(4-fluoro-3-(methylsulfonyl)phenyl)-2-isopropylpiperazin-1-yl)-4-methyl-6-(trifluoromethyl)pyrimidine]
LXR α LBD protein
  Ki: 0.105 µM
LXR β LBD protein; read-out: LXRβ Binding Ki
  Ki: 0.009 µM
[1]
  Cell LXRα efficacy: 1110 (61) %
  EC50: 1.11 µM
[2]
  Cell LXRβ efficacy: 161 (44) %
  EC50: 0.161 µM

## CCOC(=O)c1cnc(N2CCN(c3ccc(F)c(S(C)(=O)=O)c3)C[C@H]2C(C)C)nc1C [7-19, ethyl (R)-2-(4-(4-fluoro-3-(methylsulfonyl)phenyl)-2-isopropylpiperazin-1-yl)-4-methylpyrimidine-5-carboxylate]
LXR α LBD protein
  Ki: 0.162 µM
LXR β LBD protein; read-out: LXRβ Binding Ki
  Ki: 0.017 µM
[1]
  Cell LXRα efficacy: 909 (40) %
[1]; agonist mode
  EC50: 0.909 µM
[2]
  Cell LXRβ efficacy: 176 (32) %
  EC50: 0.176 µM

## Cc1nc(N2CCN(c3ccc(F)c(S(C)(=O)=O)c3)C[C@H]2C(C)C)ncc1Br [7-20, (R)-5-bromo-2-(4-(4-fluoro-3-(methylsulfonyl)phenyl)-2-isopropylpiperazin-1-yl)-4-methylpyrimidine]
LXR α LBD protein
  Ki: 0.101 µM
LXR β LBD protein; read-out: LXRβ Binding Ki
  Ki: 0.008 µM
[1]
  Cell LXRα efficacy: 787 (80) %
[1]; agonist mode
  EC50: 0.787 µM
[2]
  Cell LXRβ efficacy: 142 (57) %
  EC50: 0.142 µM

## CC(C)[C@@H]1CN(c2ccc(F)c(S(C)(=O)=O)c2)CCN1c1cncc(C(F)(F)F)n1 [7-45, (R)-2-(4-(4-fluoro-3-(methylsulfonyl)phenyl)-2-isopropylpiperazin-1-yl)-6-(trifluoromethyl)pyrazine]
LXR α LBD protein
  Ki: 0.115 µM
LXR β LBD protein; read-out: LXRβ Binding Ki
  Ki: 0.012 µM
[1]
  Cell LXRα efficacy: 377 (85) %
[1]; agonist mode
  EC50: 0.377 µM
[2]
  Cell LXRβ efficacy: 136 (71) %
  EC50: 0.136 µM

## CC(C)[C@@H]1CN(c2ccc(F)c(S(C)(=O)=O)c2)CCN1c1nc2ccccc2o1 [7-52, (R)-2-(4-(4-fluoro-3-(methylsulfonyl)phenyl)-2-isopropylpiperazin-1-yl)benzo[d]oxazole]
LXR α LBD protein
  Ki: 0.365 µM
LXR β LBD protein; read-out: LXRβ Binding Ki
  Ki: 0.041 µM
[1]
  Cell LXRα efficacy: 1018 (76) %
  EC50: 1.02 µM
[2]
  Cell LXRβ efficacy: 192 (48) %
  EC50: 0.192 µM

## CC(C)[C@@H]1CN(c2ccc(F)c(S(C)(=O)=O)c2)CCN1c1nc2c(F)cccc2s1 [7-54, (R)-4-fluoro-2-(4-(4-fluoro-3-(methylsulfonyl)phenyl)-2-isopropylpiperazin-1-yl)benzo[d]thiazole]
LXR α LBD protein
  Ki: 0.068 µM
LXR β LBD protein; read-out: LXRβ Binding Ki
  Ki: 0.009 µM
[1]
  Cell LXRα efficacy: 371 (95) %
  EC50: 0.371 µM
[2]
  Cell LXRβ efficacy: 77 (80) %
  EC50: 0.077 µM

## CC(C)[C@@H]1CN(c2ccc(F)c(S(C)(=O)=O)c2)CCN1c1nc2ccc(F)cc2s1 [7-55, (R)-6-fluoro-2-(4-(4-fluoro-3-(methylsulfonyl)phenyl)-2-isopropylpiperazin-1-yl)benzo[d]thiazole]
LXR α LBD protein
  Ki: 0.12 µM
LXR β LBD protein; read-out: LXRβ Binding Ki
  Ki: 0.014 µM
[1]
  Cell LXRα efficacy: 439 (68) %
  EC50: 0.439 µM
[2]
  Cell LXRβ efficacy: 106 (55) %
  EC50: 0.106 µM

## CC(C)[C@@H]1CN(c2ccc(F)c(S(C)(=O)=O)c2)CCN1c1nc2ccccc2s1 [7-56, (R)-2-(4-(4-fluoro-3-(methylsulfonyl)phenyl)-2-isopropylpiperazin-1-yl)benzo[d]thiazole]
LXR α LBD protein
  Ki: 0.146 µM
LXR β LBD protein; read-out: LXRβ Binding Ki
  Ki: 0.015 µM
[1]
  Cell LXRα efficacy: 770 (70) %
  EC50: 0.77 µM
[2]
  Cell LXRβ efficacy: 99 (51) %
  EC50: 0.099 µM
